{"source": "PubChem BioAssay (NCI)", "assay_in_all_cases": "NCI anticancer screen, dose series, 48 h", "key": {"[1]": {"system": "M14 melanoma"}, "[2]": {"system": "SK-OV-3 ovarian"}, "[3]": {"system": "HCT-15 colon"}, "[4]": {"system": "KM12 colon"}, "[5]": {"system": "NCI-H522 lung"}, "[6]": {"system": "MDA-MB-231 breast"}, "[7]": {"system": "SF-295 CNS"}, "[8]": {"system": "SF-268 CNS"}, "[9]": {"system": "T-47D breast"}, "[10]": {"system": "MDA-MB-435"}, "[11]": {"system": "MCF7 breast"}, "[12]": {"system": "UO-31 renal"}, "[13]": {"system": "SR leukemia"}, "[14]": {"system": "TK-10 renal"}, "[15]": {"system": "UACC-62 melanoma"}, "[16]": {"system": "HL-60(TB) leukemia"}, "[17]": {"system": "NCI/ADR-RES ovarian"}, "[18]": {"system": "IGROV1 ovarian"}, "[19]": {"system": "COLO 205 colon"}, "[20]": {"system": "PC-3 prostate"}, "[21]": {"system": "HS 578T breast"}, "[22]": {"system": "SN12C renal"}, "[23]": {"system": "OVCAR-5 ovarian"}, "[24]": {"system": "SF-539 CNS"}, "[25]": {"system": "NCI-H460 lung"}, "[26]": {"system": "NCI-H226 lung"}, "[27]": {"system": "SNB-19 CNS"}, "[28]": {"system": "BT-549 breast"}, "[29]": {"system": "SNB-75 CNS"}}, "note": "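How tested: cells in 96-well plates exposed to compound for 48 hours at five concentrations. GI50 = concentration required for 50% inhibition of growth. TGI: total growth inhibition.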", "data": [{"smiles": "COC(=O)[C@]12CC[C@@H](C)[C@H](C)[C@@H]1C1=CC[C@@H]3[C@@]4(C)C(c5ncon5)=C[C@@](C)(CO)C4=CC[C@@]3(C)[C@]1(C)CC2", "values": [{"measurement": "GI50", "setting": "[1]", "result": 2.07, "unit": "µM"}, {"measurement": "TGI", "setting": "[1]", "result": 4.88, "unit": "µM"}, {"measurement": "GI50", "setting": "[2]", "result": 4.49, "unit": "µM"}, {"measurement": "TGI", "setting": "[2]", "result": 15.5, "unit": "µM"}, {"measurement": "GI50", "setting": "[3]", "result": 1.91, "unit": "µM"}, {"measurement": "TGI", "setting": "[3]", "result": 4.08, "unit": "µM"}, {"measurement": "GI50", "setting": "[4]", "result": 1.98, "unit": "µM"}, {"measurement": "TGI", "setting": "[4]", "result": 3.99, "unit": "µM"}, {"measurement": "GI50", "setting": "[5]", "result": 1.71, "unit": "µM"}, {"measurement": "TGI", "setting": "[5]", "result": 3.57, "unit": "µM"}, {"measurement": "GI50", "setting": "[6]", "result": 2.2, "unit": "µM"}, {"measurement": "TGI", "setting": "[6]", "result": 5.08, "unit": "µM"}, {"measurement": "GI50", "setting": "[7]", "result": 2.11, "unit": "µM"}, {"measurement": "TGI", "setting": "[7]", "result": 5.03, "unit": "µM"}, {"measurement": "GI50", "setting": "[8]", "result": 2.34, "unit": "µM"}, {"measurement": "TGI", "setting": "[8]", "result": 6.89, "unit": "µM"}, {"measurement": "GI50", "setting": "[9]", "result": 1.99, "unit": "µM"}, {"measurement": "TGI", "setting": "[9]", "result": 5.86, "unit": "µM"}, {"measurement": "GI50", "setting": "[10]", "result": 1.72, "unit": "µM"}, {"measurement": "TGI", "setting": "[10]", "result": 3.36, "unit": "µM"}, {"measurement": "GI50", "setting": "[11]", "result": 1.42, "unit": "µM"}, {"measurement": "TGI", "setting": "[11]", "result": 2.9, "unit": "µM"}, {"measurement": "GI50", "setting": "[12]", "result": 1.69, "unit": "µM"}, {"measurement": "TGI", "setting": "[12]", "result": 3.2, "unit": "µM"}, {"measurement": "GI50", "setting": "[13]", "result": 1.55, "unit": "µM"}, {"measurement": "TGI", "setting": "[13]", "result": 4.21, "unit": "µM"}, {"measurement": "GI50", "setting": "[14]", "result": 2.17, "unit": "µM"}, {"measurement": "TGI", "setting": "[14]", "result": 5.36, "unit": "µM"}, {"measurement": "GI50", "setting": "[15]", "result": 1.89, "unit": "µM"}, {"measurement": "TGI", "setting": "[15]", "result": 4.02, "unit": "µM"}, {"measurement": "GI50", "setting": "[16]", "result": 2.13, "unit": "µM"}, {"measurement": "TGI", "setting": "[16]", "result": 5.04, "unit": "µM"}, {"measurement": "GI50", "setting": "[17]", "result": 2.28, "unit": "µM"}, {"measurement": "TGI", "setting": "[17]", "result": 5.72, "unit": "µM"}, {"measurement": "GI50", "setting": "[18]", "result": 2.47, "unit": "µM"}, {"measurement": "TGI", "setting": "[18]", "result": 7.19, "unit": "µM"}, {"measurement": "GI50", "setting": "[19]", "result": 1.96, "unit": "µM"}, {"measurement": "TGI", "setting": "[19]", "result": 4.15, "unit": "µM"}, {"measurement": "GI50", "setting": "[20]", "result": 2.1, "unit": "µM"}, {"measurement": "TGI", "setting": "[20]", "result": 4.7, "unit": "µM"}, {"measurement": "GI50", "setting": "[21]", "result": 2.52, "unit": "µM"}, {"measurement": "TGI", "setting": "[21]", "result": 8.03, "unit": "µM"}, {"measurement": "GI50", "setting": "[22]", "result": 3.05, "unit": "µM"}, {"measurement": "TGI", "setting": "[22]", "result": 10.6, "unit": "µM"}, {"measurement": "GI50", "setting": "[23]", "result": 5.2, "unit": "µM"}, {"measurement": "TGI", "setting": "[23]", "result": 26.8, "unit": "µM"}, {"measurement": "GI50", "setting": "[24]", "result": 1.97, "unit": "µM"}, {"measurement": "TGI", "setting": "[24]", "result": 3.89, "unit": "µM"}, {"measurement": "GI50", "setting": "[25]", "result": 1.97, "unit": "µM"}, {"measurement": "TGI", "setting": "[25]", "result": 3.95, "unit": "µM"}, {"measurement": "GI50", "setting": "[26]", "result": 1.99, "unit": "µM"}, {"measurement": "TGI", "setting": "[26]", "result": 4.4, "unit": "µM"}, {"measurement": "GI50", "setting": "[27]", "result": 2.84, "unit": "µM"}, {"measurement": "TGI", "setting": "[27]", "result": 11.6, "unit": "µM"}, {"measurement": "GI50", "setting": "[28]", "result": 2.39, "unit": "µM"}, {"measurement": "TGI", "setting": "[28]", "result": 6.38, "unit": "µM"}, {"measurement": "GI50", "setting": "[29]", "result": 1.62, "unit": "µM"}]}]}
